# Literature values, collected in PubChem BioAssay AID1259409 (Chemical Carcinogenesis Research Information System (CCRIS), 2018).
# Test system: rodent chemically induced tumor inhibition, incidence and multiplicity
# Assay: CCRIS tumor inhibitor studies
smiles,measurement,setting,value
O=c1oc2c(O)c(O)cc3c(=O)oc4c(O)c(O)cc1c4c23,"tumour outcome (control, treated, inhibition, significance)","Carcinogen: 7,12-DIMETHYLBENZ[A]ANTHRACENE, 57-97-6, Dose [Inhibitor]: 0, 2000 PPM IN DIET FROM 1 WK PRIOR TO CARCINOGEN TREATMENT TO 3 D POST CARCINOGEN TREATMENT (STUDY DURATION: 42 WK), Route [Inhibitor]: ORAL, Species: FISH, Strain/Sex: RAINBOW TROUT/ MALE, FEMALE, Target Tissue: Type of Lesion: STOMACH: TUMOR, Dose [Carcinogen]: 5.5 PPM IN WATER FOR 1 HR, Promoter: NONE USED","88%, 78%, 11%, p<0.05"
same,"tumour outcome (control, treated, inhibition, significance)","Carcinogen: 7,12-DIMETHYLBENZ[A]ANTHRACENE, 57-97-6, Dose [Inhibitor]: 0, 2000 PPM IN DIET FROM 3 WK PRIOR TO CARCINOGEN TREATMENT TO 3 D POST CARCINOGEN TREATMENT (STUDY DURATION: 42 WK), Route [Inhibitor]: ORAL, Species: FISH, Strain/Sex: RAINBOW TROUT/ MALE, FEMALE, Target Tissue: Type of Lesion: LIVER: TUMOR, Dose [Carcinogen]: 4.16 PPM IN WATER FOR 1 HR, Promoter: NONE USED","7%, 22%, -214%, p<0.001"
same,"tumour outcome (control, treated, inhibition, significance)","Carcinogen: 7,12-DIMETHYLBENZ[A]ANTHRACENE, 57-97-6, Dose [Inhibitor]: 0, 2000 PPM IN DIET FROM 3 WK PRIOR TO CARCINOGEN TREATMENT TO 3 D POST CARCINOGEN TREATMENT (STUDY DURATION: 42 WK), Route [Inhibitor]: ORAL, Species: FISH, Strain/Sex: RAINBOW TROUT/ MALE, FEMALE, Target Tissue: Type of Lesion: SWIM BLADDER: TUMOR, Dose [Carcinogen]: 4.16 PPM IN WATER FOR 1 HR, Promoter: NONE USED","14%, 61%, -336%, p<0.001"
same,"tumour outcome (control, treated, inhibition, significance)","Carcinogen: 7,12-DIMETHYLBENZ[A]ANTHRACENE, 57-97-6, Dose [Inhibitor]: O, 2000 PPM IN DIET FROM 3 WK PRIOR TO CARCINOGEN TREATMENT TO 3D POST CARCINOGEN TREATMENT (STUDY DURATION: 42 WK), Route [Inhibitor]: ORAL, Species: FISH, Strain/Sex: RAINBOW TROUT/ MALE, FEMALE, Target Tissue: Type of Lesion: STOMACH: TUMOR, Dose [Carcinogen]: 4.16 PPM IN WATER FOR 1 HR, Promoter: NONE USED","97%, 94%, 3%, not significant"
same,"tumour outcome (control, treated, inhibition, significance)","Carcinogen: (+/-)-1BETA,2ALPHA-DIHYDROXY-3ALPHA,4ALPHA-EPOXY-1,2,3,4-TETRAHYDROBENZO[A]PYRE NE, 78919-11-6, Dose [Inhibitor]: 0, 300 NMOL (TOTAL DOSE) APPLIED 10 MIN PRIOR TO CARCINOGEN DOSE INJECTED AS 1/7, 2/7, AND 4/7 OF THE TOTAL ON DAYS 1, 8, Route [Inhibitor]: INTRAPERITONEAL, Species: MOUSE, Strain/Sex: ICR/MALE, FEMALE, Target Tissue: Type of Lesion: LUNG: TUMOR, Dose [Carcinogen]: 50 NMOL (TOTAL DOSE) INJECTED IN DOSES OF 1/7, 2/7, AND 4/7 ON DAYS 1, 8, AND 15 OF LIFE, RESPECTIVELY, Promoter: NONE USED","93%, 86%, 8%, not significant"
same,"tumour outcome (control, treated, inhibition, significance)","Carcinogen: (+/-)-7BETA,8ALPHA-DIHYDROXY-9ALPHA,10ALPHA-EPOXY-7,8,9,10-TETRAHYDROBENZO[A]PYR ENE, 58917-67-2, Dose [Inhibitor]: 0, 300 NMOL (TOTAL DOSE) APPLIED 10 MIN PRIOR TO CARCINOGEN DOSE INJECTED AS 1/7, 2/7, AND 4/7 OF THE TOTAL ON DAYS 1, 8, Route [Inhibitor]: INTRAPERITONEAL, Species: MOUSE, Strain/Sex: ICR/MALE, FEMALE, Target Tissue: Type of Lesion: LUNG: TUMOR, Dose [Carcinogen]: 15 NMOL (TOTAL DOSE) INJECTED IN DOSES OF 1/7, 2/7, AND 4/7 ON DAYS 1, 8, AND 15 OF LIFE, RESPECTIVELY, Promoter: NONE USED","86%, 76%, 12%, not significant"
same,"tumour outcome (control, treated, inhibition, significance)","Carcinogen: (+/-)-7BETA,8ALPHA-DIHYDROXY-9ALPHA,10ALPHA-EPOXY-7,8,9,10-TETRAHYDROBENZO[A]PYR ENE, 58917-67-2, Dose [Inhibitor]: 0, 1250 NMOL IN 200 µL ACETONE:METHANOL (45:55) ONCE APPLIED 5 MIN PRIOR TO CARCINOGEN DOSE (STUDY DURATION: 21 WK), Route [Inhibitor]: DERMAL, Species: MOUSE, Strain/Sex: CD-1/FEMALE, Target Tissue: Type of Lesion: SKIN: TUMOR, Dose [Carcinogen]: 200 NMOL IN ACETONE:DMSO (90:10) ONCE, Promoter: 12-O-TETRADECANOYLPHORBOL-13-ACETATE, 16561-29-8","62%, 50%, 19%, not significant"
same,"tumour outcome (control, treated, inhibition, significance)","Carcinogen: (+/-)-7BETA,8ALPHA-DIHYDROXY-9ALPHA,10ALPHA-EPOXY-7,8,9,10-TETRAHYDROBENZO[A]PYR ENE, 58917-67-2, Dose [Inhibitor]: 0, 2500 NMOL IN 200 µL ACETONE:METHANOL (45:55) ONCE APPLIED 5 MIN PRIOR TO CARCINOGEN DOSE (STUDY DURATION: 21 WK), Route [Inhibitor]: DERMAL, Species: MOUSE, Strain/Sex: CD-1/FEMALE, Target Tissue: Type of Lesion: SKIN: TUMOR, Dose [Carcinogen]: 200 NMOL IN ACETONE:DMSO (90:10) ONCE, Promoter: 12-O-TETRADECANOYLPHORBOL-13-ACETATE, 16561-29-8","62%, 43%, 31%, not significant"
same,"tumour outcome (control, treated, inhibition, significance)","Carcinogen: (+/-)-7BETA,8ALPHA-DIHYDROXY-9ALPHA,10ALPHA-EPOXY-7,8,9,10-TETRAHYDROBENZO[A]PYR ENE, 58917-67-2, Dose [Inhibitor]: 0, 2500 NMOL IN 200 µL ACETONE:METHANOL (45:55) ONCE APPLIED 30 MIN PRIOR TO CARCINOGEN DOSE (STUDY DURATION: 21 WK), Route [Inhibitor]: DERMAL, Species: MOUSE, Strain/Sex: CD-1/FEMALE, Target Tissue: Type of Lesion: SKIN: TUMOR, Dose [Carcinogen]: 200 NMOL IN ACETONE:DMSO (90:10) ONCE, Promoter: 12-O-TETRADECANOYLPHORBOL-13-ACETATE, 16561-29-8","53%, 33%, 38%, not significant"
same,"tumour outcome (control, treated, inhibition, significance)","Carcinogen: (+/-)-7BETA,8ALPHA-DIHYDROXY-9ALPHA,10ALPHA-EPOXY-7,8,9,10-TETRAHYDROBENZO[A]PYR ENE, 58917-67-2, Dose [Inhibitor]: 0, 2500 NMOL IN 200 µL ACETONE:METHANOL (45:55) ONCE APPLIED 120 MIN PRIOR TO CARCINOGEN DOSE (STUDY DURATION: 21 WK), Route [Inhibitor]: DERMAL, Species: MOUSE, Strain/Sex: CD-1/FEMALE, Target Tissue: Type of Lesion: SKIN: TUMOR, Dose [Carcinogen]: 200 NMOL IN ACETONE:DMSO (90:10) ONCE, Promoter: 12-O-TETRADECANOYLPHORBOL-13-ACETATE, 16561-29-8","63%, 43%, 32%, not significant"
same,"tumour outcome (control, treated, inhibition, significance)","Carcinogen: AZOXYMETHANE, 25843-45-2, Dose [Inhibitor]: 0, 4000 PPM IN DIET BEGINNING PRIOR TO CARCINOGEN DOSE AND CONTINUING FOR DURATION OF STUDY (STUDY DURATION: 54 WK), Route [Inhibitor]: ORAL, Species: RAT, Strain/Sex: F344/MALE, Target Tissue: Type of Lesion: COLON: ADENOCARCINOMA, Dose [Carcinogen]: 15 MG/KG 1/WK FOR 2 WK, Promoter: NONE USED","72%, 64%, 11%, not calculated"
same,"tumour outcome (control, treated, inhibition, significance)","Carcinogen: AZOXYMETHANE, 25843-45-2, Dose [Inhibitor]: 0, 4000 PPM IN DIET BEGINNING PRIOR TO CARCINOGEN DOSE AND CONTINUING FOR DURATION OF STUDY (STUDY DURATION: 54 WK), Route [Inhibitor]: ORAL, Species: RAT, Strain/Sex: F344/MALE, Target Tissue: Type of Lesion: COLON: ADENOMA, Dose [Carcinogen]: 15 MG/KG 1/WK FOR 2 WK, Promoter: NONE USED","14%, 8%, 43%, not calculated"
